Results as given in patent USRE45313E1, “Exendin variant peptides” (priority 1999, dated 2014).

Key:
ob/ob mice = assay: Blood glucose levels in ob/ob mice after peroral and intraperitoneal administration (Example 25); assay type: in vivo
Description: Forty female diabetic ob/ob mice (Umeä strain, Bomholtgaard), which are obese due to a dominant mutant leptin (Tomita, T., Doull, V., Pollock, H. G., and Krizsan, D. 1992. Pancreatic islets of obese hyperglycemic mice (ob/ob). Pancreas 7: 367-75) were housed (3 mice/cage) under controlled ambient conditions following a 12:12-h light: dark cycle and fed standard Altromin no 1324 diet with free access to tap water. At arrival the animals were 8 weeks of age. The mice were allowed 2 weeks of acclimatization before experiments were initiated. […] Handling of the mice one and three days before the experiment was performed in order to reduce stress-induced BG excursions. On the day of the experiment, blood was taken from the tip of the tail 2-3 hours after the light was turned on. A single drop of blood (<5 μl) was dropped on the glucose strip for analysis and measured by an Elite Autoanalyser, Bayer, Denmark. Whole blood glucose (BG) concentration was analysed by the immobilised glucose oxidase method. […] Six animals with BG <5.8 mM were excluded from the study (total n=36). The remaining animals were stratified based on their BG levels in order to ensure that the mean BG was similar among groups.
Various concentrations of each peptide are administered orally and intraperitoneally to ob/ob mice to determine if these compounds affect blood glucose levels. The experimental conditions used were the same as described in Example 24.
Solutions are prepared on the morning of dosing, immediately before the animals are administered. The same solutions are used for both peroral and interperitoneal administration. All peptides are dissolved in sterile isotonic NaCl and given in a volume of 0.2 ml. As negative control, saline is administered perorally.
In order to analyse the effects of the compounds, the absolute and the relative (% of t=0) difference from baseline was calculated for each time point.

in vivo = assay: in vivo
Protocol: Compound 4 (batch No. ZP 7.97-5-F, 4053 g/mol) and Compound (iii) (batch No. ZP 7.73-2-G, 3854 g/mol) were synthesised in-house using the Fmoc strategy.
Plasma (250 μl) was transferred to ice-chilled 0.75 ml PLC vials containing 250 μl extraction solution (MeCN: 0.18 M Ammonium Carbonate pH 9.5, 10:90 v/v). The plasma samples were stored at −20 C until SPE and LC/MS analysis.

[1] = In vivo pharmacokinetics after i.v. administration to rabbits; conditions: iv; for half-life: New Zealand White, rabbit, in vivo, 1000 nmol/kg, iv 1000 nmol/kg, mean
Protocol: In order to establish whether this effect is sustained in vivo, the pharmacokinetic parameters of the two compounds are examined in rabbits.
Compound 4 (batch No. ZP 7.97-5-F, 4053 g/mol) and Compound (iii) (batch No. ZP 7.73-2-G, 3854 g/mol) were synthesised in-house using the Fmoc strategy. […] The peptides were dissolved in pyrogen free isotonic saline and both peptides were administered i.v. to rabbits and rats using a dose of 1000 nmol/kg.
Fifteen New Zealand White rabbits weighing 2.5 to 3.0 kg were used for the experiment. On the day of the experiment, the rabbits were anaesthetised with Hypnorm® i.m. followed by Dormicum® i.v., Catheters were inserted into the femoral vein and artery for i.v. administration of drugs and arterial blood sampling. The rabbits stayed unconscious throughout the experiment.
Blood samples were collected at t−1, 3, 5, 10, 15, 20, 30, 40, 60, 90, 120, 150, 180, and 240 min. The blood was collected in EDTA containing ice-chilled tubes and immediately centrifuged at 4 C for 5 min (20.000×g). Plasma (250 μl) was transferred to ice-chilled 0.75 ml PLC vials containing 250 μl extraction solution (MeCN: 0.18 M Ammonium Carbonate pH 9.5, 10:90 v/v). The plasma samples were stored at −20 C until SPE and LC/MS analysis.
The drug containing plasma samples (400 μl) are loaded onto OASIS™ HLB (Compound 4) or ISOLUTE™ (Compound (iii)) solid phase extraction columns preconditioned with 950 μl MeCN followed by 950 μl water. The columns are washed with 950 μl 2% TFA in water followed by an equal volume of 2% TFA in MeCN:water (20:78 v/v). The analytes are eluted with 500 μl 2% TFA in MeCN:water (60:38 v/v) and analysed by LC/MS.
The samples were kept at 18 C in the auto sampler tray prior to injection of 20 to 50 μl onto the LC column (Vydac 218MS52 (2.1×250 mm). The separations were performed at 30° C. using a flow rate of 250 μl/min and a gradient according to the table below. Both the test compound and the reference drug are detected by single ion recording (SIR) using the m/z=676.7 and the m/z=1095.2 and 821.8 ion species, respectively. All instrument conditions were controlled by MassLynx software ver. 3.3 software.
The plasma samples were analysed as described under materials and methods and the plasma concentration (Cpl) plotted versus time in a semi log diagram. The plasma concentration were followed for three hours in rabbits, whereas the limited blood volume of rats restricted the blood sampling in this specie to one hour. The Cpl vs. time curves from the individual rabbits were fitted to a two-compartment open model (figure not shown) using 1/y^2 weighted least squares in WinNonlin 3.1 (Pharsight Corp. (Mountain View, Calif.)).
Table 5: The pharmacokinetic constants were obtained from rabbits when the Cpl vs. time curves was fitted mathematically. The compounds were administered iv in a concentration of 1000 nmol/kg. T1/2 values are given in minutes (min) for the a and P phase.

Row | SMILES | blood glucose relative to baseline (ob/ob mice; 1 μg po, 1 hour) | blood glucose relative to baseline (ob/ob mice; 1 μg po, 2 hours) | blood glucose relative to baseline (ob/ob mice; 1 μg po, 4 hours) | blood glucose relative to baseline (ob/ob mice; 10 μg po, 1 hour) | blood glucose relative to baseline (ob/ob mice; 10 μg po, 2 hours) | blood glucose relative to baseline (ob/ob mice; 10 μg po, 4 hours) | blood glucose relative to baseline (ob/ob mice; 100 μg ip, 1 hour) | blood glucose relative to baseline (ob/ob mice; 100 μg ip, 2 hours) | blood glucose relative to baseline (ob/ob mice; 100 μg ip, 4 hours) | blood glucose relative to baseline (ob/ob mice; 100 μg po, 1 hour) | blood glucose relative to baseline (ob/ob mice; 100 μg po, 2 hours) | blood glucose relative to baseline (ob/ob mice; 100 μg po, 4 hours) | blood glucose relative to baseline (ob/ob mice; 1000 μg po, 1 hour) | blood glucose relative to baseline (ob/ob mice; 1000 μg po, 2 hours) | blood glucose relative to baseline (ob/ob mice; 1000 μg po, 4 hours) | half-life ([1]; T1/2, α) | half-life ([1]; T1/2, β) | also measured
1 | CC[C@H](C)[C@H](NC(=O)[C@H](Cc1ccccc1)NC(=O)[C@H](CCC(=O)O)NC(=O)[C@H](CCCCN)NC(=O)[C@H](C)NC(=O)[C@H](C)NC(=O)[C@H](CCC(N)=O)NC(=O)CNC(=O)[C@H](CCC(=O)O)NC(=O)[C@H](CC(C)C)NC(=O)[C@H](Cc1ccc(O)cc1)NC(=O)[C@H](CO)NC(=O)[C@H](CO)NC(=O)[C@@H](NC(=O)[C@H](CC(=O)O)NC(=O)[C@H](CO)NC(=O)[C@@H](NC(=O)[C@H](Cc1ccccc1)NC(=O)[C@@H](NC(=O)CNC(=O)[C@H](CCC(=O)O)NC(=O)CNC(=O)[C@@H](N)Cc1c[nH]cn1)[C@@H](C)O)[C@@H](C)O)C(C)C)C(=O)N[C@@H](C)C(=O)N[C@@H](Cc1c[nH]c2ccccc12)C(=O)N[C@@H](CC(C)C)C(=O)N[C@H](C(=O)N[C@@H](CCCCN)C(=O)NCC(=O)N[C@@H](CCCNC(=N)N)C(=O)N[C@@H](CCCCN)C(=O)N[C@@H](CCCCN)C(=O)N[C@@H](CCCCN)C(=O)N[C@@H](CCCCN)C(=O)N[C@@H](CCCCN)C(=O)N[C@@H](CCCCN)C(N)=O)C(C)C [Compound 4] | 99 % of t=0 | 89 % of t=0 | 84 % of t=0 | 98 % of t=0 | 95 % of t=0 | 81 % of t=0 | 83 % of t=0 | 58 % of t=0 | 56 % of t=0 | 72 % of t=0 | 70 % of t=0 | 58 % of t=0 | 128 % of t=0 | 72 % of t=0 | 78 % of t=0 | 6.8 min | 28 min | detected in the plasma samples (rats) (in vivo; intra duodenal administration of 1.000 nmol/kg): two out of four rats; detected in the plasma samples (rats) (in vivo; intra duodenal administration of 10.000 nmol/kg): four out of five rats; T½ value relative to the unconjugated peptide ([1]; Table 5): approximately three times
2 | CCCCCCCCCCCCCCCC(=O)NCCCC[C@H](NC(=O)[C@H](CCCNC(=N)N)NC(=O)CNC(=O)[C@H](CCCCN)NC(=O)[C@@H](NC(=O)[C@H](CC(C)C)NC(=O)[C@H](Cc1c[nH]c2ccccc12)NC(=O)[C@H](C)NC(=O)[C@@H](NC(=O)[C@H](Cc1ccccc1)NC(=O)[C@H](CCC(=O)O)NC(=O)[C@H](CCCCN)NC(=O)[C@H](C)NC(=O)[C@H](C)NC(=O)[C@H](CCC(N)=O)NC(=O)CNC(=O)[C@H](CCC(=O)O)NC(=O)[C@H](CC(C)C)NC(=O)[C@H](Cc1ccc(O)cc1)NC(=O)[C@H](CO)NC(=O)[C@H](CO)NC(=O)[C@@H](NC(=O)[C@H](CC(=O)O)NC(=O)[C@H](CO)NC(=O)[C@@H](NC(=O)[C@H](Cc1ccccc1)NC(=O)[C@@H](NC(=O)CNC(=O)[C@H](CCC(=O)O)NC(=O)CNC(=O)[C@@H](N)Cc1c[nH]cn1)[C@@H](C)O)[C@@H](C)O)C(C)C)[C@@H](C)CC)C(C)C)C(=O)N[C@@H](CCCCN)C(=O)N[C@@H](CCCCN)C(=O)N[C@@H](CCCCN)C(=O)N[C@@H](CCCCN)C(=O)N[C@@H](CCCCN)C(=O)N[C@@H](CCCCN)C(N)=O [Compound 5] | 111 % of t=0 | 133 % of t=0 | 114 % of t=0 | 90 % of t=0 | 120 % of t=0 | 126 % of t=0 | 63 % of t=0 | 50 % of t=0 | 52 % of t=0 | 97 % of t=0 | 140 % of t=0 | 107 % of t=0 | 73 % of t=0 | 75 % of t=0 | 67 % of t=0 | – | – | –
3 | CC[C@H](C)[C@H](NC(=O)[C@H](Cc1ccccc1)NC(=O)[C@H](CCC(=O)O)NC(=O)[C@H](CCCCN)NC(=O)[C@H](C)NC(=O)[C@H](C)NC(=O)[C@H](CCC(N)=O)NC(=O)CNC(=O)[C@H](CCC(=O)O)NC(=O)[C@H](CC(C)C)NC(=O)[C@H](Cc1ccc(O)cc1)NC(=O)[C@H](CO)NC(=O)[C@H](CO)NC(=O)[C@@H](NC(=O)[C@H](CC(=O)O)NC(=O)[C@H](CO)NC(=O)[C@@H](NC(=O)[C@H](Cc1ccccc1)NC(=O)[C@@H](NC(=O)CNC(=O)[C@H](CCC(=O)O)NC(=O)CNC(=O)[C@@H](N)Cc1cnc[nH]1)[C@@H](C)O)[C@@H](C)O)C(C)C)C(=O)N[C@@H](C)C(=O)N[C@@H](Cc1c[nH]c2ccccc12)C(=O)N[C@@H](CC(C)C)C(=O)N[C@H](C(=O)N[C@@H](CCCCN)C(=O)NCC(=O)N[C@@H](CCCNC(=N)N)C(N)=O)C(C)C [Compound (iii), reference compound] | – | – | – | – | – | – | – | – | – | – | – | – | – | – | – | 2.3 min | 10.8 min | level at time molar (in vivo; Sprague-Dawley, rat, plasma, 10 nmol/kg): < 0.5 nM
